Earlier results in patent publication US12582665B2, “Topical composition” (FUTURA MEDICAL DEVELOPMENTS LIMITED, priority 2020, dated 2026).

Tests used:
[1] = not given; remark: listed apart in the source

## C=C(C)[C@@H]1CCC(C)=C[C@H]1c1c(O)cc(CCCCC)cc1O [CBD, cannabidiol]
other
  log P: ~+6.00
[1]
  Solubility in propylene glycol: exceeding 10 % w/w
